Assay results as given in PMC11599901, “Enhancing the solubility and antibacterial activity of novel molecular salts of enrofloxacin drug with isomeric pyridinedicarboxylic acids” (Scientific Reports, 2024).
≈ marks a conversion by molar mass, not a printed value. Read-outs that look alike come from different tables or passages of the source.

Columns and labels:
[1] = tested on: Staphylococcus aureus ATCC 6358; test: Broth microdilution antibacterial activity (MIC/MBC), CLSI M07; assay type: cell-based; conditions: 24 h at 37 °C; for MBC (minimal bactericidal concentration) / MIC (minimal inhibitory concentration): Mueller-Hinton medium
Method: (§1) The antibacterial activity of the enrofloxacin salts was determined against two Gram-positive strains (Staphylococcus aureus ATCC 6358, Streptococcus pyogenes ATCC 19615) and two Gram-negative bacteria (Escherichia coli ATCC 25922, Pseudomonas aeruginosa ATCC 15442). The determination was performed in accordance with Clinical and Laboratory Standards Institute (CLSI) standard […] for antimicrobial susceptibility testing of aerobic bacteria. The assessment was performed using the broth microdilution method with Mueller-Hinton medium. The tested samples were accompanied by biotic controls, i.e. without the addition of newly synthesized compounds, and abiotic controls, i.e. without the addition of microorganisms. All probes were incubated for 24 h at 37 °C. Microbial growth was measured using a microplate reader (Multiskan FC Microplate Photometer, ThermoFisher Scientific, Pudong, Shanghai, China) at λ = 630 nm. The follow were determined: the minimal inhibitory concentration (MIC), defined as the lowest concentration of a compound that prevents visible growth of bacteria, and minimal bactericidal concentration (MBC), defined as the lowest concentration of a substance that completely limits the viability of microorganisms.

[2] = tested on: Streptococcus pyogenes ATCC 19615; test: as above; assay type: cell-based; conditions: 24 h at 37 °C; for MBC (minimal bactericidal concentration) / MIC (minimal inhibitory concentration): Mueller-Hinton medium
Method: as §1

[3] = tested on: Pseudomonas aeruginosa ATCC 15442; test: as above; assay type: cell-based; conditions: 24 h at 37 °C; for MBC (minimal bactericidal concentration) / MIC (minimal inhibitory concentration): Mueller-Hinton medium
Method: as §1

[4] = tested on: Escherichia coli ATCC 25922; test: as above; assay type: cell-based; conditions: 24 h at 37 °C; for MBC (minimal bactericidal concentration) / MIC (minimal inhibitory concentration): Mueller-Hinton medium
Method: as §1

[5] = cited from earlier work
[6] = Water solubility by the gravimetric method; assay type: physicochemical; conditions: 25 °C
Method: Temperature was maintained using a calibrated UltraUB 20 F with a DLK 25 circulating cooler (Lauda, Germany). A specific amount of the substance under investigation was carefully weighed using a precise analytical balance (Sartorius RC 210D). The mixture of salts and water was thoroughly mixed to ensure complete dissolution of the substance under investigation and left for 2 h to achieve equilibrium between the solution and the precipitate. Then, the solution was filtered, and the remaining precipitate was dried to a constant mass to remove the solvent. The difference between the initial mass of the substance m0 and the mass of the undissolved substance m1 allowed for the determination of the mass of the substance dissolved in the given mass of solvent.
Each measurement was taken in triplicate.

MIC (minimal inhibitory concentration) [1] [µg/mL]	MIC (minimal inhibitory concentration) [2] [µg/mL]	MIC (minimal inhibitory concentration) [3] [µg/mL]	MIC (minimal inhibitory concentration) [4] [µg/mL]	Structure (SMILES)	MBC (minimal bactericidal concentration) [1] [µg/mL]	MBC (minimal bactericidal concentration) [2] [µg/mL]	MBC (minimal bactericidal concentration) [3] [µg/mL]	MBC (minimal bactericidal concentration) [4] [µg/mL]	also measured
0.25	0.125	1	0.0078	CCN1CCN(c2cc3c(cc2F)c(=O)c(C(=O)O)cn3C2CC2)CC1.O=C(O)c1ccnc(C(=O)O)c1 [EFX·Py2,4DCA]	0.25	0.25	2	0.031	
0.25	0.125	1	0.0078	CCN1CCN(c2cc3c(cc2F)c(=O)c(C(=O)O)cn3C2CC2)CC1.O.O=C(O)c1ccc(C(=O)O)nc1 [EFX·Py2,5DCA·H2O]	0.25	0.25	2	0.031	
0.25	0.125	1	0.0078	CCN1CCN(c2cc3c(cc2F)c(=O)c(C(=O)O)cn3C2CC2)CC1.O=C(O)c1cccnc1C(=O)O [EFX·Py2,3DCA]	0.25	0.25	2	0.031	
				O=C(O)CC(O)C(=O)O (stereo not drawn) [malic acid]					solubility in water ([5]; ref 41): 16130 µg/mL (≈ 120000 µM)
				O=C(O)c1ccc(C(=O)O)nc1 [Py2,5DCA, pyridine-2,5-dicarboxylic acid]					solubility in water [6]: 1237 µg/mL (≈ 7400 µM)
				CCN1CCN(c2cc3c(cc2F)c(=O)c(C(=O)O)cn3C2CC2)CC1 [EFX, 1-cyclopropyl-7-(4-ethyl-1-piperazinyl)-6-fluoro-1,4-dihydro-4-oxo-3-quinolinecarboxylic acid, reference compound]					solubility at 2 h ([6]; thermodynamic from solid): 176 µg/mL (≈ 490 µM); solubility in water ([5]; ref 34): 610 µg/mL (≈ 1700 µM); solubility in water ([5]; ref 41): 140 µg/mL (≈ 390 µM); MBC ([1]; ATCC6358, Mueller-Hinton medium, read-out: MBC (minimal bactericidal concentration)): 0.25 µg/mL (≈ 0.696 µM); MIC ([1]; ATCC6358, Mueller-Hinton medium, read-out: MIC (minimal inhibitory concentration)): 0.0625 µg/mL (≈ 0.174 µM); MBC ([2]; ATCC19615, Mueller-Hinton medium, read-out: MBC (minimal bactericidal concentration)): 0.125 µg/mL (≈ 0.348 µM); MIC ([2]; ATCC19615, Mueller-Hinton medium, read-out: MIC (minimal inhibitory concentration)): 0.0625 µg/mL (≈ 0.174 µM); MBC ([3]; ATCC15442, Mueller-Hinton medium, read-out: MBC (minimal bactericidal concentration)): 1 µg/mL (≈ 2.78 µM); MIC ([3]; ATCC15442, Mueller-Hinton medium, read-out: MIC (minimal inhibitory concentration)): 0.5 µg/mL (≈ 1.39 µM); MBC ([4]; ATCC25922, Mueller-Hinton medium, read-out: MBC (minimal bactericidal concentration)): 0.0078 µg/mL (≈ 0.0217 µM); MIC ([4]; ATCC25922, Mueller-Hinton medium, read-out: MIC (minimal inhibitory concentration)): 0.0078 µg/mL (≈ 0.0217 µM)
0.25	0.125	1	0.0078	CCN1CCN(c2cc3c(cc2F)c(=O)c(C(=O)O)cn3C2CC2)CC1.O.O=C(O)c1cccc(C(=O)O)n1 [EFX·Py2,6DCA·H2O]	0.25	0.25	2	0.015	
